Source: US12692253B2, “Antimicrobial compounds and methods” (Curza Global, LLC, priority 2019, dated 2026)

How the values were obtained:
[1] = biological target: Rabbit Reticulocyte Lysate (eukaryotic protein synthesis); experiment: Rabbit reticulocyte lysate luciferase assay (inhibition of eukaryotic protein synthesis); type: biochemical; details: % inhibition @ 1 μM, read-out: Rabbit reticulocyte IC50 (μM/% inhib.)
Method in brief: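 Percent inhibition calculated against water-only controls from luminescence; background set by lysate lacking RNA. Compounds, 8-point 2-fold titration, incubated 90 minutes at 30° C with nuclease-treated rabbit reticulocyte lysate programmed with luciferase control RNA plus complete amino acids.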

[2] = tested on: E. coli S30 extract (bacterial protein synthesis); experiment: E. coli S30 extract coupled transcription-translation luciferase assay (inhibition of bacterial protein synthesis); type: biochemical; details: % inhibition @ 1 μM, read-out: S30 IC50 (μM/% inhib.)
Method in brief: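 Luciferase luminescence quantified inhibition of protein synthesis relative to water controls, with no-DNA reactions giving background. Compounds in 2-fold serial dilution (8 levels) were incubated 1 hour at 37 °C with E. coli S30 extract, amino acids and pBESTluc plasmid, then chilled to stop.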

[3] = tested on: P. aeruginosa (Pa); experiment: Broth microdilution minimum inhibitory concentration (MIC), CLSI; type: cell-based; details: Pseudomonas aeruginosa, growth medium with sodium bicarbonate, read-out: Pa MIC + bicarb
Method in brief: (§1)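 Modified CLSI method: CAMHB (± bicarbonate 6.25/25 mM or 0-50% human serum), 8-point two-fold series, triplicates, 5×10^4 CFU/well.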

[4] = tested on: E. coli (Ec); experiment: as above; type: cell-based; details: Escherichia coli, growth medium with sodium bicarbonate, read-out: E. coli + bicarb MIC
Method in brief: as §1

[5] = tested on: E. faecalis (Ef); experiment: as above; type: cell-based; details: Enterococcus faecalis, growth medium with sodium bicarbonate, read-out: Ef + bicarb MIC
Method in brief: as §1

[6] = tested on: A. baumannn (Ab); experiment: as above; type: cell-based; details: A. baumannn; growth medium with sodium bicarbonate; read-out: Ab + bicarb MIC
Method in brief: as §1

[7] = tested on: S. aureus (Sa); experiment: as above; type: cell-based; details: Staphylococcus aureus, growth medium with sodium bicarbonate, read-out: Sa + bicarb MIC
Method in brief: as §1

**Q.** Which IC50 [1] does the source give for `NCC1CC2(CCN(C(=O)Nc3ccn(-c4ccc(CN5C[C@@H]6[C@@H](N)[C@@H]6C5)cc4)c(=O)n3)CC2)C1` [Compound 252] here?
**A.** ≥ 1 µM

**Q.** And the IC50 [2]?
**A.** 0.5 to 1 µM

**Q.** What about the MIC [3] of the same molecule?
**A.** > 32 µg/mL

**Q.** What about the MIC [4] of the same molecule?
**A.** < 8 µg/mL

**Q.** And the MIC [5]?
**A.** > 32 µg/mL

**Q.** What about the MIC [6] of the same molecule?
**A.** > 32 µg/mL

**Q.** And the MIC [7]?
**A.** < 8 µg/mL

**Q.** Which results are given for `NC[C@H]1CCN(C(=O)Nc2ccn(-c3ccc(CN4C[C@@H]5[C@@H](N)[C@@H]5C4)cc3)c(=O)n2)C1` [Compound 253]?
**A.** IC50 [1]: ≥ 1 µM; IC50 [2]: ≥ 1 µM; MIC [3]: > 32 µg/mL; MIC [4]: > 32 µg/mL; MIC [5]: > 32 µg/mL; MIC [6]: > 32 µg/mL; MIC [7]: > 32 µg/mL

**Q.** For `NCC1CN(C(=O)Nc2ccn(-c3ccc(CN4C[C@@H]5[C@@H](N)[C@@H]5C4)cc3)c(=O)n2)C1` [Compound 254], which IC50 [1] is on record?
**A.** ≥ 1 µM

**Q.** What about the IC50 [2] of the same molecule?
**A.** 0.5 to 1 µM

**Q.** And the MIC [3]?
**A.** > 32 µg/mL

**Q.** And the MIC [4]?
**A.** 8 to 32 µg/mL

**Q.** What about the MIC [5] of the same molecule?
**A.** > 32 µg/mL

**Q.** What about the MIC [6] of the same molecule?
**A.** > 32 µg/mL

**Q.** And the MIC [7]?
**A.** > 32 µg/mL

**Q.** Which IC50 [1] does the source give for `NCCC1CN(C(=O)Nc2ccn(-c3ccc(CN4C[C@@H]5[C@@H](N)[C@@H]5C4)cc3)c(=O)n2)C1` [Compound 255] here?
**A.** ≥ 1 µM

**Q.** What about the IC50 [2] of the same molecule?
**A.** 0.5 to 1 µM

**Q.** And the MIC [3]?
**A.** > 32 µg/mL

**Q.** What about the MIC [4] of the same molecule?
**A.** 8 to 32 µg/mL

**Q.** What about the MIC [5] of the same molecule?
**A.** > 32 µg/mL

**Q.** What about the MIC [6] of the same molecule?
**A.** > 32 µg/mL

**Q.** What about the MIC [7] of the same molecule?
**A.** > 32 µg/mL
